In the supplement of paper PMC12463676, “Small-molecule dissolution of stress granules by redox modulation benefits ALS models” (Nature Chemical Biology, 2025):

What was measured:
lipoamide = compound: NC(=O)CCCCC1CCSS1 [lipoamide]; assay: thermal stability z-score vs DMSO; higher = more thermally stabilized by treatment; settings: HeLa, lipoamide concentration 100 µM
Description: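 Cellular thermal proteome profiling in HeLa cells. Cells were treated with 100 µM lipoamide for 1 h, with or without 1 mM arsenate for a further 1 h, then heated to ten temperatures (37-66.3 °C), and soluble protein was quantified by TMT mass spectrometry relative to 0.1% DMSO controls. The thermal stability score (sum of log2 fold changes minus the abundance score) was transformed to a z-score; mean of n = 3 experiments.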

potassium arsenate = compound: O=[As]([O-])(O)O.[K+] [potassium arsenate]; assay: as above; settings: HeLa; arsenate concentration 1 mM
Description: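 Cellular thermal proteome profiling in HeLa cells treated with 1 mM arsenate for 1 h (DMSO pretreatment), heated to ten temperatures (37-66.3 °C). Soluble protein was quantified by TMT mass spectrometry relative to DMSO controls; the thermal stability score was transformed to a z-score; mean of n = 3 experiments.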

[1] = arsenate co-treatment: 1 mM arsenate 1 h
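Note: each temperature applied for 3 min, abundance score taken as mean log2 fold change at the two lowest temperatures, z-score obtained by mean subtraction and division by SD.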

Sequence of UniProt Q96EP5 (Q96EP5 whole entry): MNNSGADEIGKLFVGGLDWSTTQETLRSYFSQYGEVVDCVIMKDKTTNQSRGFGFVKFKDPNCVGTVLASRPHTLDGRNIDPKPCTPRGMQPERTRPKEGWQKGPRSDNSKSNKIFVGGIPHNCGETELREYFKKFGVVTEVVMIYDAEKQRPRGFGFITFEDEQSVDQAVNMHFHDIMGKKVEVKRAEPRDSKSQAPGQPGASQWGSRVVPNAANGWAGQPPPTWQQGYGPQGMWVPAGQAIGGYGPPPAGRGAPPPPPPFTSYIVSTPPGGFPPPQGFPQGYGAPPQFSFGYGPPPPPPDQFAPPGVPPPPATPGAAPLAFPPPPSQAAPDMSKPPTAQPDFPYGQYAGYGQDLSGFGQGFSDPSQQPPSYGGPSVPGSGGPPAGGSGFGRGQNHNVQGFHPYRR
Sequence of UniProt Q9UER7 (Q9UER7 whole entry): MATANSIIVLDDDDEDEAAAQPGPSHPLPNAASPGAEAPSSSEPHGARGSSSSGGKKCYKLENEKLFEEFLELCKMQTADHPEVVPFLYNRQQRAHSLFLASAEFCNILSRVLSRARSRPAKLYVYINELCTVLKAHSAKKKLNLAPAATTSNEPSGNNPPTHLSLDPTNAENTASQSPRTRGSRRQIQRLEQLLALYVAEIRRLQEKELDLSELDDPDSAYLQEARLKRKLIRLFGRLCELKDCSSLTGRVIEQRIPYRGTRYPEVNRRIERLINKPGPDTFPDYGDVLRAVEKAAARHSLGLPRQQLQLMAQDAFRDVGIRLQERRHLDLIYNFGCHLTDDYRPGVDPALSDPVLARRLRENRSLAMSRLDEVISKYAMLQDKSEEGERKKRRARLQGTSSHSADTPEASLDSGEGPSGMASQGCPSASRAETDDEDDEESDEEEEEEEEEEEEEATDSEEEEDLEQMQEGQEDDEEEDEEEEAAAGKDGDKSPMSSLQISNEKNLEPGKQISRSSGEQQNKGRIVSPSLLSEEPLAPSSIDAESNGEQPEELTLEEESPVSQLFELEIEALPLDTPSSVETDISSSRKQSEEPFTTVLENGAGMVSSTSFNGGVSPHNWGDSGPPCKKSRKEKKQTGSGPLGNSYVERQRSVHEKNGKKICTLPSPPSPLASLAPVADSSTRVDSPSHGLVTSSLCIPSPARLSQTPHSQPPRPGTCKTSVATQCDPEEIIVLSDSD
Sequence of UniProt Q9H467 (Q9H467 whole entry): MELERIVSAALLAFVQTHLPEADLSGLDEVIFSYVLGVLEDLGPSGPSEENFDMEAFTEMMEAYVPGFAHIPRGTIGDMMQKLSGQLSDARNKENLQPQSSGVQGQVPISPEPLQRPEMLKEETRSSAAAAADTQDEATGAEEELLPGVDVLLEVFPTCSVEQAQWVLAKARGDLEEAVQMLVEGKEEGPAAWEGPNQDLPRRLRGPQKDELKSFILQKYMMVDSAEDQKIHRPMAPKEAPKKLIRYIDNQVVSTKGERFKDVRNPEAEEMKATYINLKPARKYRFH
Sequence of UniProt P78310 (P78310 whole entry): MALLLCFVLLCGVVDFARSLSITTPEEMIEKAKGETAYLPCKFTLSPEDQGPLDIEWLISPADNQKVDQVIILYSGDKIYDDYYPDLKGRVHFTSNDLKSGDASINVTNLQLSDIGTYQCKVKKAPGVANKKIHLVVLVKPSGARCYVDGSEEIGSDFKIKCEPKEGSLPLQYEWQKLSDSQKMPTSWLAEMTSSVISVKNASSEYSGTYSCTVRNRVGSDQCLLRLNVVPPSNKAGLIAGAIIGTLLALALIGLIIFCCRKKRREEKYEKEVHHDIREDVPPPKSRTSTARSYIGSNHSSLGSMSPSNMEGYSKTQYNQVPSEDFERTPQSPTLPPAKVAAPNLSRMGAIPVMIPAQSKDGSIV
Sequence of UniProt Q6UX04 (Q6UX04 whole entry): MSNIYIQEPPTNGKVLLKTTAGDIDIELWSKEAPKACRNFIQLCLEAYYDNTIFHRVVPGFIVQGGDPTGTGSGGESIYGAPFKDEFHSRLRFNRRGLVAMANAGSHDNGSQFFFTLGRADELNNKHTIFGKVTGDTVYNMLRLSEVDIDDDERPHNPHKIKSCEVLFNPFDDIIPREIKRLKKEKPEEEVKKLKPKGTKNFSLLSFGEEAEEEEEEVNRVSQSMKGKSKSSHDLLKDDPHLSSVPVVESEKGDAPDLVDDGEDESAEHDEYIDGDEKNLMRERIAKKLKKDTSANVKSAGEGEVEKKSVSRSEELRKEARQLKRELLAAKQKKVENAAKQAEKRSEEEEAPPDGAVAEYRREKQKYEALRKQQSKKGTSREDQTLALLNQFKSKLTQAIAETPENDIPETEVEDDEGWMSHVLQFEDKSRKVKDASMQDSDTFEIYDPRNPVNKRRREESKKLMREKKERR
Sequence of UniProt Q9P2B4 (Q9P2B4 whole entry): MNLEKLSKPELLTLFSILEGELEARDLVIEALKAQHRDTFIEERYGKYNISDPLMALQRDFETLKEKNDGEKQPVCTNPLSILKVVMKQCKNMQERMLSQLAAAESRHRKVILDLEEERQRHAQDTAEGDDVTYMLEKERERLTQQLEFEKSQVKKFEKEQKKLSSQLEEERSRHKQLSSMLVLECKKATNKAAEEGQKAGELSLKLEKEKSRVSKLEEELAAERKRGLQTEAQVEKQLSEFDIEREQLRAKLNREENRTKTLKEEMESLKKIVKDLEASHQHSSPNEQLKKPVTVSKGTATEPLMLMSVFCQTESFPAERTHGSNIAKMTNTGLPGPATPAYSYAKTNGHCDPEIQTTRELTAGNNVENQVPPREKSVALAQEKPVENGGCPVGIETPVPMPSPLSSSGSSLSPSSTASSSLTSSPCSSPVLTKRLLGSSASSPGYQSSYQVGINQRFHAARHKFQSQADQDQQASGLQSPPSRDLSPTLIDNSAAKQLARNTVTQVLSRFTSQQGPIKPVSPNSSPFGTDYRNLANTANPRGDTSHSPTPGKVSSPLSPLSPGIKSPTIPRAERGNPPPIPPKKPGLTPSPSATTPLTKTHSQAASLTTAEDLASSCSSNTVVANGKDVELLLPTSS
Sequence of UniProt Q14118 (Q14118 whole entry): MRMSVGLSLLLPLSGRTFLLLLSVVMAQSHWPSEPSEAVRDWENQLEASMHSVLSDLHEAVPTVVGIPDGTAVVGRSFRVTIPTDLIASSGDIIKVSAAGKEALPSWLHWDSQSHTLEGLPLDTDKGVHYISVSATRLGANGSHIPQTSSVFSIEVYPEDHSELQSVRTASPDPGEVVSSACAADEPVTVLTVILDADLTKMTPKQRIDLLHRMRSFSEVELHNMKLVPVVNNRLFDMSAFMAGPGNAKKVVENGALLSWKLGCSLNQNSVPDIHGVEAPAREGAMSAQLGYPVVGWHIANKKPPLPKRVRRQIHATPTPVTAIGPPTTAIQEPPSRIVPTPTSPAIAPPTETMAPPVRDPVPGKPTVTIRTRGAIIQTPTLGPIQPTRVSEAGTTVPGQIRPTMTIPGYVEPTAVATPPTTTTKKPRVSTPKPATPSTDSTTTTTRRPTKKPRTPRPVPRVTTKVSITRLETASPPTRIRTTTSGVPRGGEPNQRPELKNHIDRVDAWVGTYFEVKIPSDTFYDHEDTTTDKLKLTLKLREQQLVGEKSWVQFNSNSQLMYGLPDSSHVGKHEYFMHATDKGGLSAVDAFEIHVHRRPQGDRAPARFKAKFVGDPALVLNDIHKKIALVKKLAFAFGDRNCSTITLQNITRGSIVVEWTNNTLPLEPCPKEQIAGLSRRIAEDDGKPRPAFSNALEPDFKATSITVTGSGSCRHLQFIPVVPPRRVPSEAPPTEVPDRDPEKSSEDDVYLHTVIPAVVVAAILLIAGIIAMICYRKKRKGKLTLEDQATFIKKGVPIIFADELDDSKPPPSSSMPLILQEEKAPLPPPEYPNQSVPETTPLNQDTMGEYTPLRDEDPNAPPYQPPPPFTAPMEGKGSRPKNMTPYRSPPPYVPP
Sequence of UniProt Q93034 (Q93034 whole entry): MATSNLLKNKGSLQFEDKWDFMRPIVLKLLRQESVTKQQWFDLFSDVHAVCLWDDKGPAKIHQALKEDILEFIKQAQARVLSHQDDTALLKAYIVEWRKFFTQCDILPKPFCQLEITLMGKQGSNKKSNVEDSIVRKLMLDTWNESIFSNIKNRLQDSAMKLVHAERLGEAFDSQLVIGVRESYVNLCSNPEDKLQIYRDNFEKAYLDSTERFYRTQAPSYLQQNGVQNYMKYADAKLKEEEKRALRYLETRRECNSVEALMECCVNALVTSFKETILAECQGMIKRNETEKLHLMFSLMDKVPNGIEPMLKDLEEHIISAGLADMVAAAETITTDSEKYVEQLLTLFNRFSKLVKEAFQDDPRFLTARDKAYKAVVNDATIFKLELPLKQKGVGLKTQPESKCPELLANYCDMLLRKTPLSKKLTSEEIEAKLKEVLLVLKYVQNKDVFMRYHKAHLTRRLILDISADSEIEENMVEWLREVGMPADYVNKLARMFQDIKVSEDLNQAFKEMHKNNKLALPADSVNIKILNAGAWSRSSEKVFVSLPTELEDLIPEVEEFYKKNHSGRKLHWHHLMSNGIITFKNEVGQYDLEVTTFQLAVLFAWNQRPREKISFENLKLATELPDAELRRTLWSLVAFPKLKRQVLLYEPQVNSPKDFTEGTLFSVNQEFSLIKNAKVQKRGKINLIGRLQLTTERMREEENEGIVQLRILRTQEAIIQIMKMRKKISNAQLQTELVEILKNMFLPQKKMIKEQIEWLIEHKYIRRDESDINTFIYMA
Sequence of UniProt P51397 (P51397 whole entry): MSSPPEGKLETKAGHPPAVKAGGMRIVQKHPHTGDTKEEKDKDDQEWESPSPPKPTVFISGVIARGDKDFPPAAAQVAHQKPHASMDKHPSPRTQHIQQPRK

Target	thermal stability z-score (lipoamide; [1])	thermal stability z-score (lipoamide; arsenate co-treatment: none)	thermal stability z-score (potassium arsenate)
CTPS2 (UniProt Q9NRF8)	0.218	-0.0335	0.109
CTR9 (UniProt Q6PD62)	0.156	0.203	0.243
CTSA (UniProt P10619)	-0.264	-0.283	-0.0364
CTSB (UniProt P07858)	-0.289	-0.315	-0.676
CTSC (UniProt P53634)	-0.492	-0.279	-0.148
CTSD (UniProt P07339)	0.0179	-0.0567	-0.598
CTSL (UniProt P07711)	-0.924	-0.44	0.977
CTSZ (UniProt Q9UBR2)	-1.02	-0.748	0.529
CTTN (UniProt Q14247)	0.536	0.451	0.2
CTTNBP2NL (UniProt Q9P2B4)	1.4	1.54	1.26
CTU1 (UniProt Q7Z7A3)	-0.119	-0.0524	-0.16
CTU2 (UniProt Q2VPK5)	0.157	0.225	-0.165
CUEDC2 (UniProt Q9H467)	-0.0601	-0.131	0.0094
CUL1 (UniProt Q13616)	0.708	0.275	-0.108
CUL2 (UniProt Q13617)	0.23	0.0777	-0.256
CUL3 (UniProt Q13618)	-0.1	-0.422	0.158
CUL4A (UniProt Q13619)	0.0347	-0.214	-0.0896
CUL4B (UniProt Q13620)	0.0797	-0.0817	-0.051
CUL5 (UniProt Q93034)	0.631	0.636	0.131
CUL7 (UniProt Q14999)	0.0636	0.0136	-0.113
CUTA (UniProt O60888)	1.1	0.709	-0.0462
CUTC (UniProt Q9NTM9)	0.342	0.211	-0.934
CUX1	0.393	0.589	0.272
CWC15 (UniProt Q9P013)	1.65	0.526	-0.193

Target	thermal stability z-score (lipoamide; [1])	thermal stability z-score (lipoamide; arsenate co-treatment: none)	thermal stability z-score (potassium arsenate)
CWC22 (UniProt Q9HCG8)	-0.0873	0.0387	-0.263
CWC27 (UniProt Q6UX04)	0.0242	-0.348	-0.344
CWF19L1 (UniProt Q69YN2)	-0.381	-0.106	-0.198
CWF19L2 (UniProt Q2TBE0)	0.0402	-0.0633	-0.098
CXADR (UniProt P78310)	0.11	0.273	0.0224
CXORF38 (UniProt Q8TB03)	0.486	0.307	-1.87
CXORF56 (UniProt Q9H5V9)	0.162	-0.0486	-3.91
CXXC1 (UniProt Q9P0U4)	-0.00204	0.187	0.00172
CYB5B (UniProt O43169)	1.05	0.411	0.322
CYB5R1 (UniProt Q9UHQ9)	1.47	0.244	-2.32
CYB5R3 (UniProt P00387)	1.07	-0.079	-0.832
CYB5R4 (UniProt Q7L1T6)	0.477	0.1	-0.243
CYB561A3 (UniProt Q8NBI2)	-0.299	-0.521	-0.949
CYBA (UniProt P13498)	0.0672	0.232	0.653
CYC1 (UniProt P08574)	0.0943	-0.0471	-1.31
CYCS (UniProt P99999)	0.873	0.819	-0.152
CYFIP1 (UniProt Q7L576)	-0.422	-0.325	-1.67
CYFIP2 (UniProt Q96F07)	0.325	0.825	0.312
CYLD (UniProt Q9NQC7)	-0.238	0.0192	0.144
CYP1B1 (UniProt Q16678)	0.0413	0.0132	-0.0983
CYP2S1 (UniProt Q96SQ9)	-1.14	-0.765	-0.647
CYP20A1 (UniProt Q6UW02)	0.107	0.633	0.0905
CYP51A1 (UniProt Q16850)	-0.665	-0.0953	0.803
CYR61 (UniProt O00622)	-1.72	-1.47	-4.51

Target	thermal stability z-score (lipoamide; [1])	thermal stability z-score (lipoamide; arsenate co-treatment: none)	thermal stability z-score (potassium arsenate)
CYSTM1 (UniProt Q9H1C7)	-0.79	0.912	-1.22
CYTH1 (UniProt Q15438)	-0.178	0.00951	0.0222
DAAM1 (UniProt Q9Y4D1)	-0.0152	-0.226	0.17
DAB2 (UniProt P98082)	0.216	0.404	1.73
DAB2IP (UniProt Q5VWQ8)	-0.101	-0.023	-0.398
DAG1 (UniProt Q14118)	-0.341	-0.236	0.184
DAGLB (UniProt Q8NCG7)	0.268	0.278	0.0163
DAP3 (UniProt P51398)	-0.597	-0.135	0.132
DAP (UniProt P51397)	1.03	0.89	-0.0556
DAPK3 (UniProt O43293)	-0.0576	-0.0876	0.228
DARS2 (UniProt Q6PI48)	-0.726	-0.586	-1.93
DARS (UniProt P14868)	0.186	-0.0144	-0.593
DAXX (UniProt Q9UER7)	-0.0224	-0.149	-0.391
DAZAP1 (UniProt Q96EP5)	1.15	1.07	0.243
DBI (UniProt P07108)	1.09	0.274	-0.228
DBN1 (UniProt Q16643)	0.625	-0.407	-0.684
DBNL (UniProt Q9UJU6)	0.473	0.208	0.99
DBR1 (UniProt Q9UK59)	0.0885	-0.174	0.5
DBT (UniProt P11182)	-0.65	-0.0292	-1.75
DCAF6 (UniProt Q58WW2)	-0.747	-0.879	-0.72
DCAF7 (UniProt P61962)	0.278	0.939	1.2
DCAF10 (UniProt Q5QP82)	0.0128	0.566	0.0678
DCAF11 (UniProt Q8TEB1)	0.101	0.343	-0.996
DCAF12 (UniProt Q5T6F0)	0.118	0.0205	0.154
